Experiment: Plasma coenzyme Q10 levels after oral administration to rats (HPLC assay)
Format: in vivo, male SD strain rats
Conditions: plasma coenzyme Q10 (reduced + oxidized), oral 100 mg/kg in soybean oil
Procedure: A solution of reduced coenzyme Q10 (containing 1% by weight of oxidized coenzyme Q10) in soybean oil (reduced coenzyme Q10/soybean oil solution=20 mg/ml) was orally administered to male SD strain rats (6 weeks of age) at a dose of reduced coenzyme Q10 (containing 1% by weight of oxidized coenzyme Q10) of 100 mg/kg and, after 0.5, 1, 2, 3, 4, 5, 6, 8, 12 and 24 hours after administration, blood samples were collected and used for assaying plasma coenzyme Q10 (reduced coenzyme Q10 and oxidized coenzyme Q10) (n=4). Plasma coenzyme Q10 was assayed by HPLC. Thus, coenzyme Q7 (0.003 mg), ethanol (1 ml), distilled water (1 ml) and ferric chloride (0.01%) were added to each rat plasma sample (0.2 ml) and, after mixing up, hexane (3 ml) was added thereto and coenzyme Q10 was extracted with shaking. […]
Reduced coenzyme Q10 (containing 3% by weight of oxidized coenzyme Q10) was administered in the same manner as in Example 1, and plasma coenzyme Q10 levels were determined.
Oxidized coenzyme Q10 was administered in the same manner as in Example 1, and plasma coenzyme Q10 levels were determined.
Reduced coenzyme Q10 (containing 5% by weight of oxidized coenzyme Q10) was administered in the same manner as in Example 1, and plasma coenzyme Q10 levels were determined.

- Cmax (n=4): 1730 ng/mL
- AUC (n=4, sampling up to 24 hours): 12900 ng·h/mL
SMILES: COC1=C(OC)C(=O)C(C/C=C(\C)CC/C=C(\C)CC/C=C(\C)CC/C=C(\C)CC/C=C(\C)CC/C=C(\C)CC/C=C(\C)CC/C=C(\C)CC/C=C(\C)CCC=C(C)C)=C(C)C1=O [Comparative Example 1, Oxidized coenzyme Q10]

Reference: US7708990B2, “Coenzyme Q compositions persisting in blood” (Kaneka Corporation, priority 2004, dated 2010)
